{
  "source": "patent US12076342B2",
  "about": "“Method for generating progenitor t cells from stem and/or progenitor cells and use of same” (THE GOVERNING COUNCIL OF THE UNIVERSITY OF TORONTO, priority 2016, dated 2024)",
  "key": {"[1]": {"test_system": "double negative (DN; CD4− CD8−) thymocytes", "assay": "DL4-Fc ligand binding to thymocytes", "description": "Progenitor T cell development in the thymus is characterized by four sequential stages commonly referred to as DN1, DN2, DN3 and DP (DN=double negative and DP=double positive for CD4 and CD8 expression). An ideal defined progenitor T cell differentiation assay should aim to support the expansion of DN3 T cells that are exclusively committed to the T lymphoid lineage. […] Conventional in vitro T cell differentiation is carried out on an OP9 stromal feeder layer in serum-containing medium. The obvious first step in developing a defined assay for T cell differentiation is to establish conditions that eliminate the requirements for both serum and feeders. To replace the OP9 feeder layer, DL4-Fc protein was generated and the purity and functionality of the ligand to bind DN T cells and not DP T cells was verified, as these cell types differentially express the Notch-1 receptor (FIGS. 1a-c). […] Cultures were re-fed after four days and analyzed for progenitor T cell surface markers after seven days (FIG. 2a). Parallel cultures were carried out on untreated surfaces (negative control) and OP9-DL4 stromal co-culture (positive control based on which SCF, Flt3L and IL-7 supplementation concentrations were determined^9). […] The level of lineage skewing to non-T cell fates was also quantified in the absence of Notch ligand in order to assess the default cell differentiation supported by all medium types."}, "[2]": {"test_system": "human umbilical cord blood-derived CD34+ HSPCs", "assay": "Human CD34+ HSPC progenitor T cell differentiation on coated plates", "assay_type": "cell-based", "settings": "serum-free IMDM+BIT", "description": "For human HSPC culture, umbilical cord blood samples were collected from consenting donors according to ethically approved procedures at Mount Sinai Hospital. CD34+ cells were isolated from the red blood cell (RBC)-lysed cord blood fraction using the EasySep™ Human CD34 Positive Selection Kit (Stemcell Technologies) according to the manufacturer's instructions. Flow cytometry was performed after every enrichment to ensure CD34 frequencies were greater than 95%. CD34+ HSPCs were cultured for 14 days on DL4 and VCAM-1 coated 96-well plates at higher seeding densities of 12,500 HSPCs/cm^2 (corresponding to 4000 cells/well). One complete medium exchange was performed at day 7 of culture and cells were returned to the same DL4 and VCAM-1 coated plates. For certain experiments, DL4-Fc was coated alone or with RetroNectin® (Takara Shuzo) or fibronectin (Sigma Aldrich) as described in the text. CD34+ cells were cultured in serum-free Iscove modified Dulbecco medium (Gibco) with 20% bovine serum albumin, insulin, and transferrin serum substitute (BIT; Stemcell Technologies), 1% GlutaMAX™ (Gibco) and 1 μg/mL low-density lipoproteins (Calbiochem). The medium was added at 50 μL/well supplemented with 100 ng/mL SCF (R&D Systems, Minneapolis, MN), 100 ng/mL Flt3L (R&D Systems), 100 ng/mL Tpo (R&D Systems) and 100 ng/mL IL-7 (R&D Systems).\nSurface marker staining was performed with conjugated rat anti-mouse antibodies (BD Biosciences, San Jose, CA, Table 1). All samples were analyzed on a FACSCanto™ or FACS LSRFortessa™ flow cytometer (BD Biosciences). At day 7 of culture, cells were lifted off the plate with multiple HF rinses, stained at 1:400 dilution with antibodies against CD45, CD25, CD44, CD90, CD11 b and CD19 for 20 minutes on ice. […] Integrin expression was analyzed using antibodies against α4, β1, and β7 integrin subunits on Sca-1+cKit+ mouse HSPCs and CD34+ human umbilical blood cells. […] Flow data was analyzed and batch processed using FlowJo® software and further analyzed in Python (version 2.7.10)."}, "[3]": {"test_system": "sorted sca1+ckit+ fetal-liver HSPCs", "assay": "Defined T cell differentiation assay on adsorbed ligand, flow cytometry", "assay_type": "cell-based, mouse", "description": "FIG. 2a: Schematic for 2D coated DL4 assay, in which sorted E13.5 sca1+ckit+ fetal-liver HSPCs are seeded on coated DL4 ligand in standard 96-well flat bottom plates at 1000 cells/well density in 200 μl test media containing cytokines 25 ng/mL SCF, 5 ng/mL Flt3L and 1 ng/mL IL7; cells are re-fed on day 4 with fresh media containing cytokines; on day 7, cells are assayed for surface marker expression using flow cytometry.\nCommercially available DL4-Fc was purchased and used for experiments from Sino Biologicals (Cedarlane Labs, Burlington, Ontario, Canada) or manufactured in-house as described below. DL4-Fc was diluted in chilled phosphate-buffered saline (PBS) at 10 μg/mL or […] and 50 μL/well was coated in standard tissue-culture 96-well plates overnight at 4° C. Wells were washed once with PBS prior to seeding cells to remove any unbound ligand from the wells. For certain experiments, wells were also coated overnight with 50 μL/well PBS containing DL4-Fc and VCAM-1-Fc (R&D) or fibronectin (Sigma) at concentrations described herein.\nSorted sca1+ckit+ HSPCs were cultured at 1000 cells/well (corresponding to 3.1×10^3 cells/cm^2) in DL4-coated 96-well plates in serum-free Iscove modified Dulbecco medium (Gibco, Rockville, MD) with 20% bovine serum albumin, insulin, and transferrin serum substitute (BIT; Stemcell Technologies), 1% GlutaMAX™ (Gibco) and 1 μg/mL low-density lipoproteins (Calbiochem, La Jolla, CA) [IMDM+BIT]. For positive control cultures, OP9 serum medium was used, composed of αMEM medium (Gibco) and 16% FBS (Hyclone™, GE Health). Serum-free αMEM+BIT medium was prepared exactly as IMDM+BIT medium except using αMEM (Gibco) as the base medium. OP9 serum medium, αMEM+BIT or IMDM+BIT serum free medium was added at 200 μL/well supplemented with 25 ng/mL Stem Cell Factor (SCF; R&D Systems, Minneapolis, MN), 5 ng/mL FMS-like Tyrosine Kinase 3 Ligand (Flt3L; R&D Systems) and 1 ng/mL Interleukin-7 (IL-7; R&D Systems) with a 50% medium exchange step at day 4 containing 2-fold concentrated cytokines as described previously^9. Design of Experiment (DOE) in silico modeling was performed using Design-Expert® (v10) using response surface method to investigate the combinatorial desirability of different concentrations of SCF, Flt3L and IL-7 for maximizing DN3 T-cell yield and minimizing the volume of IMDM+BIT medium. After DOE optimization, IMDM+BIT serum-free medium was added at 50 μL/well supplemented with 50 ng/mL SCF (R&D Systems), 10 ng/mL Flt3L (R&D Systems) and 10 ng/mL IL-7 (R&D Systems) unless described otherwise in the text with no medium exchange for the length of the assay. For the candidate factor screening in serum-free IMDM+BIT medium, the following proteins or small molecules were used at the concentrations listed: JAK inhibitor I (50 nM; EMD Millipore), IL-11 (10, 50, and 100 ng/mL; R&D Systems), IL-6 (10, 50, and 100 ng/mL; R&D Systems), IL-6R (100 ng/mL; R&D Systems), Ccl25 (1.5 μg/mL; R&D Systems), IL-7 (50, 100, and 200 ng/mL; R&D Systems), SDF1α (Cxcl12; 200 ng/mL; R&D Systems), and Leukemia Inhibitory Factor (LIF; 0.1, 1, and 10 ng/mL; EMD Millipore).\nSurface marker staining was performed with conjugated rat anti-mouse antibodies (BD Biosciences, San Jose, CA, Table 1). All samples were analyzed on a FACSCanto™ or FACS LSRFortessa™ flow cytometer (BD Biosciences). At day 7 of culture, cells were lifted off the plate with multiple HF rinses, stained at 1:400 dilution with antibodies against CD45, CD25, CD44, CD90, CD11 b and CD19 for 20 minutes on ice. Human progenitor T-cells were stained at 1:100 dilution with antibodies against CD34, CD7, CD5 and CD45RA. Integrin expression was analyzed using antibodies against α4, β1, and β7 integrin subunits on Sca-1+cKit+ mouse HSPCs and CD34+ human umbilical blood cells. […]"}},
  "data": [
    {"substance": "DL4: Notch ligand Delta-like-4 extracellular domain fused to the Fc region of human IgG1", "values": [
      {"measurement": "binding to DN vs. DP thymocytes", "setting": "[1]", "value": "binding double negative (DN; CD4− CD8−) and not double positive (DP, CD4+CD8+) thymocytes"},
      {"measurement": "generation of CD7+CD34+ cells", "setting": "[2]; DL4 alone", "value": "can generate CD7+CD34+ cells"},
      {"measurement": "generation of later stage progenitor T cells from CD34+ HSPCs", "setting": "[2]; 9 or 14 days, matrix proteins in conjunction with DL4", "value": "insufficient to drive these progenitor cells to later stages of T cell development"},
      {"measurement": "DN3 frequency at 20 μg/mL immobilized ligand", "setting": "[3]; 20 μg/mL immobilized, no soluble ligand, day 7", "value": "generated DN3 cells at equivalent frequencies as in the 10 μg/mL coated DL4 control"},
      {"measurement": "minimum concentration of adsorbed DL4 that supported DN3 cell generation", "setting": "[3]; IMDM+BIT serum-free medium, 7 days of culture", "value": 7.5, "unit": "µg/mL"}
    ]}
  ]
}
